Measurements: ChEMBL document CHEMBL4011587, “Design, synthesis and evaluation of novel ferulic acid-O-alkylamine derivatives as potential multifunctional agents for the treatment of Alzheimer's disease” (Eur J Med Chem, 2017)
pIC50: −log10 of the molar value. Active and inactive are the calls of the source. The calls are words filed in the database; no cut-off is given here.

Legend:
Acetylcholinesterase [1] = biological target: Acetylcholinesterase (Electrophorus electricus, UniProt O42275); experiment: Inhibition of electric eel AChE using acetylthiocholine chloride as substrate measured after 15 mins by Ellman's method; assay type: ADME
Cholinesterase [2] = biological target: Cholinesterase (Equus caballus, UniProt P81908); experiment: Inhibition of equine serum BuChE using butyrylthiocholine chloride as substrate measured after 15 mins by Ellman's method
[3] = Selectivity index, ratio of IC50 for electric eel AChE to IC50 for equine serum BuChE
Acetylcholinesterase [4] = biological target: T1, Acetylcholinesterase (Rattus norvegicus, UniProt P37136); experiment: Inhibition of AChE in rat cortex homogenates using acetylthiocholine chloride as substrate measured after 15 mins by Ellman's method; assay type: ADME
T1 sequence (P37136 whole entry): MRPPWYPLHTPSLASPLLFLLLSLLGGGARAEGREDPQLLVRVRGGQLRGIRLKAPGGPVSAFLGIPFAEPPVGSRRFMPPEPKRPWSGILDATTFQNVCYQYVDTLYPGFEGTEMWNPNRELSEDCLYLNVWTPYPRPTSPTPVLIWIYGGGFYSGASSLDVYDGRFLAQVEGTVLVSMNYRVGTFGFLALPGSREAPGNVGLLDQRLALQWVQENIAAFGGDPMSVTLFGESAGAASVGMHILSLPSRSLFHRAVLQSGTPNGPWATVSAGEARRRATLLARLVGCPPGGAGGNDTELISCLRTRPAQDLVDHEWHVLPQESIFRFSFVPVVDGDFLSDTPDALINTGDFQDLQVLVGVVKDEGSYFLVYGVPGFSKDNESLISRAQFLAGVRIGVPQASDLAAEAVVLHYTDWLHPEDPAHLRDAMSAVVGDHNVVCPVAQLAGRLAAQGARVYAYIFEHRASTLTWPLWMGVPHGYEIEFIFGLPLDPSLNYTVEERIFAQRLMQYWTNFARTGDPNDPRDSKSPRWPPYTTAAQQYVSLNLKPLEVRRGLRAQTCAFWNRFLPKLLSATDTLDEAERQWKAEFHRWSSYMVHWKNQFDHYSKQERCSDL

[5] = Inhibition of BuChE in rat serum using butyrylthiocholine chloride as substrate measured after 15 mins by Ellman's method; settings: 0.25 h
Acetylcholinesterase [6] = biological target: Acetylcholinesterase (Homo sapiens, UniProt P22303); experiment: Inhibition of AChE in human erythrocytes using acetylthiocholine chloride as substrate measured after 15 mins by Ellman's method; assay type: cell-based
Cholinesterase [7] = biological target: Cholinesterase (Homo sapiens, UniProt P06276); experiment: Inhibition of BuChE in human serum using butyrylthiocholine chloride as substrate measured after 15 mins by Ellman's method
[8] = Selectivity index, ratio of IC50 for AChE in human erythrocytes to IC50 for BuChE in human serum
[9] = Selectivity ratio of IC50 for AChE in human erythrocytes to IC50 for electric eel AChE; assay type: ADME, cell-based
[10] = biological target: Amyloid-beta precursor protein (Homo sapiens) (UniProt P05067); experiment: Inhibition of amyloid beta (1 to 42) (unknown origin) self-aggregation at 25 uM after 24 hrs by thioflavin-T fluorescence assay relative to control
[11] = biological target: Amyloid-beta precursor protein (Homo sapiens) (UniProt P05067); experiment: Inhibition of amyloid beta (1 to 42) (unknown origin) self-aggregation at 50 uM after 24 hrs by thioflavin-T fluorescence assay relative to control
[12] = biological target: Amyloid-beta precursor protein (Homo sapiens) (UniProt P05067); experiment: Inhibition of amyloid beta (1 to 42) (unknown origin) self-aggregation at 12.5 uM after 24 hrs by thioflavin-T fluorescence assay relative to control
[13] = biological target: Amyloid-beta precursor protein (Homo sapiens) (UniProt P05067); experiment: Disaggregation of amyloid beta (1 to 42) (unknown origin) self aggregation at 25 uM after 24 hrs by thioflavin-T assay relative to control
[14] = biological target: Amyloid-beta precursor protein (Homo sapiens) (UniProt P05067); experiment: Inhibition of amyloid beta (1 to 42) (unknown origin) fibril formation at 25 uM after 24 hrs by transmission electron microscopic method
[15] = Antioxidant activity assessed as inhibition of AAPH-induced peroxyl radical generation measured as trolox equivalent at 1 to 10 uM preincubated for 15 mins followed by AAPH addition measured every minute for 90 mins by ORAC-FL assay; assay type: functional
PC-12 [16] = experiment: Cytotoxicity against rat PC12 cells assessed as cell viability up to 10 uM after 48 hrs by MTT assay; assay type: cell-based; settings: pc-12, 48 h
[17] = Cytotoxicity against rat PC12 cells assessed as cell viability at 100 uM after 48 hrs by MTT assay relative to control; assay type: cell-based, PC-12; settings: read-out: Activity
[18] = biological target: Amyloid-beta precursor protein (Homo sapiens) (UniProt P05067); experiment: Inhibition of amyloid beta (1 to 42) (unknown origin) self-aggregation after 24 hrs by thioflavin-T fluorescence assay
PC-12 [19] = experiment: Protection against H2O2-induced oxidative injury in rat PC12 cells assessed as increase in cell viability pretreated for 2 hrs followed by H2O2 challenge for 30 mins measured after 24 hrs by MTT assay; assay type: functional, cell-based
PC-12 [20] = experiment: Protection against H2O2-induced oxidative injury in rat PC12 cells assessed as cell viability at 10 uM pretreated for 2 hrs followed by H2O2 challenge for 30 mins measured after 24 hrs by MTT assay (reference value: 50.7%); assay type: functional; settings: read-out: Activity
PC-12 [21] = experiment: Protection against H2O2-induced oxidative injury in rat PC12 cells assessed as cell viability at 1 uM pretreated for 2 hrs followed by H2O2 challenge for 30 mins measured after 24 hrs by MTT assay (reference value: 50.7%); assay type: functional; settings: read-out: Activity
[22] = Permeability of the compound in PBS/EtOH at 100 ug/ml after 18 hrs by PAMPA-BBB assay
[23] = biological target: Amyloid-beta precursor protein (Homo sapiens) (UniProt P05067); experiment: Disaggregation of amyloid beta (1 to 42) (unknown origin) self aggregation at 25 uM after 24 hrs by transmission electron microscopic method
Mus musculus [24] = experiment: Acute toxicity in Kunming mouse up to 1000 mg/kg, po measured after 4 hrs up to 14 days; assay type: organism-based; settings: in vivo
Mus musculus [25] = experiment: Acute toxicity in Kunming mouse assessed as effect on fur sleekness up to 1000 mg/kg, po measured after 4 hrs up to 14 days; assay type: organism-based; settings: in vivo
Mus musculus [26] = experiment: Acute toxicity in Kunming mouse assessed as effect on water consumption up to 1000 mg/kg, po measured after 4 hrs up to 14 days; assay type: organism-based; settings: in vivo
Mus musculus [27] = experiment: Acute toxicity in Kunming mouse assessed as effect on food consumption up to 1000 mg/kg, po measured after 4 hrs up to 14 days; assay type: organism-based; settings: in vivo
Mus musculus [28] = experiment: Acute toxicity in Kunming mouse assessed as change in body weight up to 1000 mg/kg, po measured after 4 hrs up to 14 days; assay type: organism-based; settings: in vivo
Mus musculus [29] = experiment: Acute toxicity in Kunming mouse assessed as heart damage up to 1000 mg/kg, po measured after 14 days by macroscopic method; assay type: organism-based; settings: in vivo, 336 h
Mus musculus [30] = experiment: Acute toxicity in Kunming mouse assessed as liver damage up to 1000 mg/kg, po measured after 14 days by macroscopic method; assay type: organism-based; settings: in vivo, 336 h
Mus musculus [31] = experiment: Acute toxicity in Kunming mouse assessed as kidney damage up to 1000 mg/kg, po measured after 14 days by macroscopic method; assay type: organism-based; settings: in vivo, 336 h
Mus musculus [32] = experiment: Reversal of scopolamine-induced memory deficit in Kunming mouse assessed as step down latency time at 21.3 mg/kg, po treated for 1 hr before training followed by scopolamine challenge 30 mins before training measured 24 hrs after training trial by passive avoidance test (reference value: 50.5 sec); assay type: functional
Mus musculus [33] = experiment: Reversal of scopolamine-induced memory deficit in Kunming mouse assessed as increase in step down latency time administered orally treated for 1 hr before training followed by scopolamine challenge 30 mins before training measured 24 hrs after training trial by passive avoidance test; assay type: functional

Chain of Amyloid-beta precursor protein (Homo sapiens) (P05067 whole entry): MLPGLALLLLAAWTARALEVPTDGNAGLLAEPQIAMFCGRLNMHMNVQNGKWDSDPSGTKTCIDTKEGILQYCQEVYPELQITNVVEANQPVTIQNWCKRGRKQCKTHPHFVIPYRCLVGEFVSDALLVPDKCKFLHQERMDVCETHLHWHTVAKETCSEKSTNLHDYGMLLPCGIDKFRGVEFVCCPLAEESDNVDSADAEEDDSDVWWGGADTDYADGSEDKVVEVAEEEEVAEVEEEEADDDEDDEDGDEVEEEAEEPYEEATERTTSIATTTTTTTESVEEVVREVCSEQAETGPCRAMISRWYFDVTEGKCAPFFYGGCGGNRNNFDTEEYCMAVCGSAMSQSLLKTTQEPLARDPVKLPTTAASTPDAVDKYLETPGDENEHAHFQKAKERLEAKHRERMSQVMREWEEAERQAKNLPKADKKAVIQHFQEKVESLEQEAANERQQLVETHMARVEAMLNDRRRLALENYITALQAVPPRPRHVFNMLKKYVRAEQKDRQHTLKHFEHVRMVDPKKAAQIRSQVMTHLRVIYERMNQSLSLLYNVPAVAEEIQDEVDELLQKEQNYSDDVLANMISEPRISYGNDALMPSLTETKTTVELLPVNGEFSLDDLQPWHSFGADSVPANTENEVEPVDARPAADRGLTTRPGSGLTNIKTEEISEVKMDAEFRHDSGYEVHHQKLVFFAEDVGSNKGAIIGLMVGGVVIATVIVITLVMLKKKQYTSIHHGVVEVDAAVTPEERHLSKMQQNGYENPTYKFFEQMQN
Chain of Acetylcholinesterase (Homo sapiens, UniProt P22303) (P22303 whole entry): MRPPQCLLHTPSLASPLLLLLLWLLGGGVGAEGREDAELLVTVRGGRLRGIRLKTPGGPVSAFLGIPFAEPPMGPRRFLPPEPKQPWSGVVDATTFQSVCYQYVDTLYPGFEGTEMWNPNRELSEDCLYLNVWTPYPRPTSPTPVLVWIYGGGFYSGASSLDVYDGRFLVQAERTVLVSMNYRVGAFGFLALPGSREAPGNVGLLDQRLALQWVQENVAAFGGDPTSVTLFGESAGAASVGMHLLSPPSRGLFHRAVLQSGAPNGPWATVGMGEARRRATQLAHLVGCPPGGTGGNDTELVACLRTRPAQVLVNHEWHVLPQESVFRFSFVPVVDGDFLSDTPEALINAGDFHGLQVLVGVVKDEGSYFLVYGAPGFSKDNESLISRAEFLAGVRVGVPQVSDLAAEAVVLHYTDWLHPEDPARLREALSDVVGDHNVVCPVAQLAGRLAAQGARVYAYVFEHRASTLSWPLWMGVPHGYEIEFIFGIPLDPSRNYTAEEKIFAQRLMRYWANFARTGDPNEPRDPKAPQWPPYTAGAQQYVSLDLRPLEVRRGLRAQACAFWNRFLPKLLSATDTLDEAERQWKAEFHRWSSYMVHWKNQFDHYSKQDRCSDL
Chain of Cholinesterase (Homo sapiens, UniProt P06276) (P06276 whole entry): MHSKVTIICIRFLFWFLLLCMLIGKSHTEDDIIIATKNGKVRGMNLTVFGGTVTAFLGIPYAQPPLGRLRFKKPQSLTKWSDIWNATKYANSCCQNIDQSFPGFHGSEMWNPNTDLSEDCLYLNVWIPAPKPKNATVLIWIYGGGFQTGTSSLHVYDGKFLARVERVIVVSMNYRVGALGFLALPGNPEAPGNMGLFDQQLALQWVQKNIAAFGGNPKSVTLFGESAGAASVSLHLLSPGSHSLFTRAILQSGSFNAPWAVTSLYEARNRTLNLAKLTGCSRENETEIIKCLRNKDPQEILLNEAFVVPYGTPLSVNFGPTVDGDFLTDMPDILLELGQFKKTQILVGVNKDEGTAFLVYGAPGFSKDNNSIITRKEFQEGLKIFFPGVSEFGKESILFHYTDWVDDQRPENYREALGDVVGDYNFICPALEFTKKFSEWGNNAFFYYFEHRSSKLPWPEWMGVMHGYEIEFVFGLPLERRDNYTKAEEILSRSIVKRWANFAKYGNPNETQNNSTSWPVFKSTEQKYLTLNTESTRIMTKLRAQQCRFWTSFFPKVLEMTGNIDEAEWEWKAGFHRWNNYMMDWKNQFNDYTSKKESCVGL
Chain of Cholinesterase (Equus caballus, UniProt P81908) (P81908 whole entry): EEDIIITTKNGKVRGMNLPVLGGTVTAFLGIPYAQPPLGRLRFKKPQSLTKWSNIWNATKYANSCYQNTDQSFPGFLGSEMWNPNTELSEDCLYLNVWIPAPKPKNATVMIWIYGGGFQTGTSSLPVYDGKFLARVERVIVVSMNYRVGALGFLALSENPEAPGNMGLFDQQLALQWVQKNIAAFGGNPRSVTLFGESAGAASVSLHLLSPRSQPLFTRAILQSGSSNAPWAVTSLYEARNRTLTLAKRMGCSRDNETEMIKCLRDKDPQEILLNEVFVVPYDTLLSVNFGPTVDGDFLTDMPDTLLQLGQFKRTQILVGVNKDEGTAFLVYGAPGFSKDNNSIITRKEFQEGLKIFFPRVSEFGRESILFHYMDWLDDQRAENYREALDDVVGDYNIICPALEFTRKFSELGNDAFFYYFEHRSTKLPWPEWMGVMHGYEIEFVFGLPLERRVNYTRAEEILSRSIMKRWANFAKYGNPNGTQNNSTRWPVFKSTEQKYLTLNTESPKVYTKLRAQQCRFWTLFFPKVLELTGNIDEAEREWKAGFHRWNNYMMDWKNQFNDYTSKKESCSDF
Chain of Acetylcholinesterase (Electrophorus electricus, UniProt O42275) (O42275 whole entry): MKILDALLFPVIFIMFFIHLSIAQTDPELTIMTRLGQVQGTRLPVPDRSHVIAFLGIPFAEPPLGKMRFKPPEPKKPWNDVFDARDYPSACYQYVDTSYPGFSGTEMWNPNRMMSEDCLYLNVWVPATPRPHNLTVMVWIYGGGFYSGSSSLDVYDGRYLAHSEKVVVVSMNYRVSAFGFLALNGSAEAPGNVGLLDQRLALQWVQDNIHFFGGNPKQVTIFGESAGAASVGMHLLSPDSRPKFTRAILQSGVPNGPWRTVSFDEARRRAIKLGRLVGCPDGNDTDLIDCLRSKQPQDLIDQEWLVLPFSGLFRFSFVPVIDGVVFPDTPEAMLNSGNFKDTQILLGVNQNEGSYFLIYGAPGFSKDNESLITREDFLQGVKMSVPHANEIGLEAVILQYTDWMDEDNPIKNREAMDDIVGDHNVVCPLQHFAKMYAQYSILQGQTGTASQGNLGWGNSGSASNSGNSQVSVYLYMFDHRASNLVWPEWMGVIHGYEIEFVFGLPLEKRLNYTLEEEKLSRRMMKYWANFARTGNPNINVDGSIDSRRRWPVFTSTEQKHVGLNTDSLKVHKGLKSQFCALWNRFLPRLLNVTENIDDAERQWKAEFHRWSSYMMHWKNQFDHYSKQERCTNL

COc1cc(/C=C/C(=O)N2CCC(Cc3ccccc3)CC2)ccc1OCCCCN1CCc2ccccc2C1
pIC50 (Acetylcholinesterase [1]): 5.67 | pIC50 (Cholinesterase [2]): 7.68 | Ratio IC50 [3]: 101 | pIC50 (Acetylcholinesterase [4]): 5.74 | pIC50 [5]: 5.06 | pIC50 (Acetylcholinesterase [6]): 5.42 | pIC50 (Cholinesterase [7]): 7.15 | Ratio IC50 [8]: 54.6 | Ratio IC50 [9]: 2 to 4 | inhibition [10]: 50.8% | inhibition [11]: 68.7% | inhibition [12]: 31.2% | Activity [13]: 38.7% | inhibition [14]: Active | Activity [15]: 0.55 equiv | Activity (PC-12 [16]): Non-Toxic | viability at 48 h, 100 µM [17]: 85.8% | inhibition [18]: Dose-dependent effect | Activity (PC-12 [19]): Dose-dependent effect | viability at 10 µM (PC-12 [20]): 76.7% | viability at 1 µM (PC-12 [21]): 58.6% | Papp at 18 h, 100 ug/ml [22]: 18.4 ×10⁻⁶ cm/s | Activity [23]: Active | Activity (Mus musculus [24]): Non-Toxic | Activity (Mus musculus [25]): Non-Toxic | Activity (Mus musculus [26]): Non-Toxic | Activity (Mus musculus [27]): Non-Toxic | Activity (Mus musculus [28]): Non-Toxic | Activity (Mus musculus [29]): Non-Toxic | Activity (Mus musculus [30]): Non-Toxic | Activity (Mus musculus [31]): Non-Toxic | Time (Mus musculus [32]): 182.8 s | Activity (Mus musculus [33]): Dose-dependent effect
